The values below come from patent US10829464B2, “Benzoheterocyclic alkylamine compounds and use thereof” (priority 2016, dated 2020).

In general, IC50 refers to the point on the concentration scale where inhibition reaches its midpoint.

This experiment deals with S. aureus strain Newman. Kind of experiment: IC50 determination of inhibition of staphyloxanthin synthesis. The class given is cell-based. The note with it: Staphylococcus aureus; S. aureus strain Newman, Table 1; read-out: IC50, inhibitory activity on staphyloxanthin synthesis. The protocol: Selection of compound concentrations: based on the preliminary screening results, the ability of each compound to inhibit staphyloxanthin synthesis was determined. […] According to the assay results, 10 different concentration gradients were designed for each compound, such that the ability to inhibit staphyloxanthin synthesis comprised substantially from 0% to 100%.
Culture of the strains: single colonies of strain Newman and crtN mutant strain were picked from TSA plates, added into test tubes containing 4 mL of sterile TSB medium, and cultured at 37° C. and 250 rpm for 12 h for later use.
The relative level of staphyloxanthin synthesis at each concentration of the compound of the invention=A450 (sample)/A450 (negative control)*100%. With the molar concentration of the compound as the abscissa and the relative level of staphyloxanthin synthesis as the ordinate, a curve fitting of inhibitor concentration-inhibition rate (log(inhibitor) vs response) was performed in Graphpad prism 5.0 software, and the IC50 of the compound for inhibiting staphyloxanthin synthesis was calculated by software based on the fitting results.
S. aureus was selected for IC50 determination with respect to activity of inhibiting staphyloxanthin synthesis. […]
For `CN(C/C=C/c1ccc(C(F)(F)F)c(F)c1)Cc1coc2ccccc12` [Compound IA-9, (E)-N-methyl-N-[(benzofuran-3-yl)methylene]-3-(3-fluoro-4-trifluoromethyl-phenyl)prop-2-ene-1-the amine], the IC50 was above 1 µM. With `CN(C/C=C/c1ccc([N+](=O)[O-])cc1)Cc1coc2ccccc12` [Compound IA-16, (E)-N-methyl-N-[(benzofuran-3-yl)methylene]-3-(4-nitrophenyl)-prop-2-en-1-amine], the IC50 was found to be 0.0095 ± 0.0032 µM.

On to `CN(C/C=C/c1cccc(Cl)c1)Cc1coc2ccccc12` [Compound IA-12, (E)-N-methyl-N-[(benzofuran-3-yl)methylene]-3-(3-chlorophenyl)prop-2-en-1-amine], for which the IC50 is above 1 µM.

Turning to `CN(C/C=C/c1ccccc1[N+](=O)[O-])Cc1coc2ccccc12` [Compound IA-22, (E)-N-methyl-N-[(benzofuran-3-yl)methylene]-3-(2-nitrophenyl)-prop-2-en-1-amine], the 50% inhibitory concentration (IC50) was above 1 µM. Turning to `CN(CCCc1ccc(-c2ccccc2)cc1)Cc1coc2ccccc12` [Compound IE-1, 3-([1,1′-biphenyl]-4-yl)-N-(benzofuran-3-ylmethyl)-N-methylpropan-1-amine], the concentration for half-maximal inhibition (IC50) was above 1 µM. The figure for `CN(C/C=C/c1ccccc1C(F)(F)F)Cc1coc2ccccc12` [Compound IA-30, (E)-N-methyl-N-[(benzofuran-3-yl)methylene]-3-(2-trifluoromethylphenyl)-prop-2-en-1-amine] is above 1 µM. The figure for `CCOc1ccc(/C=C/CN(C)Cc2coc3ccccc23)cc1` [Compound IA-17, (E)-N-methyl-N-[(benzofuran-3-yl)methylene]-3-(4-ethoxyphenyl)-prop-2-en-1-amine] is above 1 µM; for `CN(C/C=C/c1ccco1)Cc1coc2ccccc12` [Compound IA-14] it is above 1 µM; for `CN(C/C=C/c1ccc(Cl)cc1)Cc1coc2ccccc12` [Compound IA-3, (E)-N-methyl-N-[(benzofuran-3-yl)methylene]-3-(4-chlorophenyl)prop-2-en-1-amine] it is 0.0049 ± 0.0001 µM. The figure for `CN(C/C=C/c1ccc2ccccc2c1)Cc1coc2ccccc12` [Compound IA-26, (E)-N-methyl-N-[(benzofuran-3-yl)methylene]-3-(2-naphthyl)-prop-2-en-1-amine] is 0.0064 ± 0.0006 µM; for `CN(CC#Cc1ccc(-c2ccccc2)cc1)Cc1coc2ccccc12` [Compound ID-1] it is above 1 µM; for `CN(CC/C=C/c1ccc(-c2ccccc2)cc1)Cc1coc2ccccc12` [Compound IA-40, (E)-4-([1,1′-biphenyl]-4-yl)-N-(benzofuran-3-ylmethyl)-N-methylbut-3-en-1-amine] it is above 1 µM. `CN(C/C=C/c1cccc([N+](=O)[O-])c1)Cc1coc2ccccc12` [Compound IA-29, (E)-N-methyl-N-[(benzofuran-3-yl)methylene]-3-(3-nitrophenyl)-prop-2-en-1-amine]: the IC50 is above 1 µM. The figure for `CN(C/C=C/c1ccc(C(F)(F)F)cc1)Cc1cc2ccccc2s1` [Compound IF-2, (E)-N-(benzo[b]thiophen-2-ylmethyl)-N-methyl-3-(4-(trifluoromethyl)phenyl)prop-2-en-1-amine] is 0.0953 ± 0.0016 µM; for `CN(C/C=C/c1ccc(C(F)(F)F)cc1F)Cc1coc2ccccc12` [Compound IA-31, (E)-N-methyl-N-[(benzofuran-3-yl)methylene]-3-(2-fluoro-4-trifluoromethyl-phenyl)-prop-2-en-1-amine] it is 0.0092 ± 0.0004 µM; for `CN(C/C=C/c1cccs1)Cc1coc2ccccc12` [Compound IA-33, (E)-N-methyl-N-[(benzofuran-3-yl)methylene]-3-thiophen-2-en-1-amine] it is above 1 µM. Take `CN(C/C=C/c1ccc(C#N)cc1)Cc1coc2ccccc12` [Compound IA-24, (E)-N-Methyl-N-[(benzofuran-3-yl)methylene]-3-(4-cyanophenyl)-prop-2-en-1-amine]: the half-inhibitory concentration (IC50) amounted to 0.0801 ± 0.0047 µM. In the case of `COc1ccc(/C=C/CN(C)Cc2coc3ccccc23)cc1F` [Compound IA-38, (E)-N-methyl-N-[(benzofuran-3-yl)methylene]-3-(3-fluoro-4-methoxyphenyl)-prop-2-en-1-amine], the IC50 is above 1 µM. With `CN(C/C=C/c1ccc(C(F)(F)F)cc1)Cc1coc2ccccc12` [Compound IA-2, (E)-N-methyl-N-[(benzofuran-3-yl)methylene]-3-(4-trifluoromethylphenyl)-prop-2-en-1-amine] the figure was 0.0098 ± 0.0003 µM; with `CN(C/C=C/C1CCCCC1)Cc1coc2ccccc12` [Compound IA-32], above 1 µM. `Cc1ccc(/C=C/CN(C)Cc2coc3ccccc23)cc1` [Compound IA-21, (E)-N-methyl-N-[(benzofuran-3-yl)methylene]-3-(4-methylphenyl)-prop-2-en-1-amine]: the IC50 stood at 0.0099 ± 0.0018 µM.

As to `CN(C/C=C/c1cccc(C(F)(F)F)c1)Cc1coc2ccccc12` [Compound IA-18, (E)-N-methyl-N-[(benzofuran-3-yl)methylene]-3-(3-trifluoromethylphenyl)-prop-2-en-1-amine], the IC50 was above 1 µM.

As to `CN(C/C=C/c1cccc2ccccc12)Cc1coc2ccccc12` [Compound IA-10, (E)-N-methyl-N-[(benzofuran-3-yl)methylene]-3-(naphthalen-1-yl)prop-2-en-1-amine], the IC50 is above 1 µM.

Consider `CN(C/C=C/c1ccc(Cl)cc1Cl)Cc1coc2ccccc12` [Compound IA-11, (E)-N-methyl-N-[(benzofuran-3-yl)methylene]-3-(2,4-dichlorophenyl)prop-2-en-1-amine], for which the IC50 amounted to 0.0062 ± 0.0005 µM. For `COC(=O)c1ccc(/C=C/CN(C)Cc2coc3ccccc23)cc1` [Compound IA-13, (E)-N-methyl-N-[(benzofuran-3-yl)methylene]-3-(4-methylcarboxylatephenyl)prop-2-en-1-amine], the IC50 worked out at 0.00945 ± 0.00075 µM. Take `CN(C/C=C/c1ccc(C(C)(C)C)cc1)Cc1coc2ccccc12` [Compound IA-27, (E)-N-methyl-N-[(benzofuran-3-yl)methylene]-3-(4-tert-butylphenyl)-prop-2-en-1-amine]: the IC50 is above 1 µM. The figure for `CN(C/C=C/c1cccc(F)c1)Cc1coc2ccccc12` [Compound IA-19, (E)-N-methyl-N-[(benzofuran-3-yl)methylene]-3-(3-fluorophenyl)-prop-2-en-1-amine] is above 1 µM; for `FC(F)(F)c1ccc(/C=C/CNCc2coc3ccccc23)cc1` [Compound IB-1] it is above 1 µM; for `CN(C/C=C/c1ccccc1Cl)Cc1coc2ccccc12` [Compound IA-8, (E)-N-methyl-N-[(benzofuran-3-yl)methylene]-3-(2-chlorophenyl)prop-2-en-1-amine] it is 0.36 ± 0.0578 µM.

Consider `C/C=C/CN(C)Cc1coc2ccccc12` [Compound IA-23], for which the IC50 was above 1 µM. As to `CN(C/C=C/c1ccccc1F)Cc1coc2ccccc12` [Compound IA-28, (E)-N-methyl-N-[(benzofuran-3-yl)methylene]-3-(2-fluorophenyl)-prop-2-en-1-amine], the IC50 was above 1 µM. With `CN(C/C=C/c1ccc(C(F)(F)F)cc1)Cc1cc2ccccc2o1` [Compound IF-1, (E)-N-(benzofuran-2-ylmethyl)-N-methyl-3-(4-(trifluoromethyl)phenyl)prop-2-en-1-amine] the figure was 0.0703 ± 0.0052 µM; with `CN(C/C=C/C1CCCC1)Cc1coc2ccccc12` [Compound IA-7, (E)-N-methyl-N-[(benzofuran-3-yl)methylene]-3-(4-cyclopentyl)prop-2-en-1-amine], 0.397 ± 0.0203 µM. The figure for `COc1ccccc1/C=C/CN(C)Cc1coc2ccccc12` [Compound IA-34, (E)-N-methyl-N-[(benzofuran-3-yl)methylene]-3-(2-methoxyphenyl)-prop-2-en-1-amine] is above 1 µM.

For the molecule `CN(C/C=C/c1ccccc1)Cc1coc2ccccc12` [Compound IA-1, (E)-N-methyl-N-[(benzofuran-3-yl)methylene]-3-phenylprop-2-en-1-amine], the IC50 is above 1 µM. The figure for `Cc1cccc(/C=C/CN(C)Cc2coc3ccccc23)c1` [Compound IA-37, (E)-N-methyl-N-[(benzofuran-3-yl)methylene]-3-(3-methylphenyl)-prop-2-en-1-amine] is above 1 µM; for `COc1cccc(/C=C/CN(C)Cc2coc3ccccc23)c1` [Compound IA-20, (E)-N-methyl-N-[(benzofuran-3-yl)methylene]-3-(3-methoxyphenyl)-prop-2-en-1-amine] it is above 1 µM. With `CC(C)N(C/C=C/c1ccc(C(F)(F)F)cc1)Cc1coc2ccccc12` [Compound IB-3, (E)-N-isopropyl-N-[(benzofuran-3-yl)methylene]-3-(4-trifluoromethylphenyl)-prop-2-en-1-amine] the figure was above 1 µM; with `CN(C/C=C/c1ccc(C(F)(F)F)cc1)Cc1csc2ccccc12` [Compound IA-41, (E)-N-(benzo[b]thiophen-3-ylmethyl)-N-methyl-3-(4-(trifluoromethyl)phenyl)prop-2-en-1-amine], 0.0521 ± 0.0008 µM; with `Cc1ccccc1/C=C/CN(C)Cc1coc2ccccc12` [Compound IA-36, (E)-N-methyl-N-[(benzofuran-3-yl)methylene]-3-(2-methylphenyl)-prop-2-en-1-amine], 0.0864 ± 0.0006 µM. On to `CCN(C/C=C/c1ccc(C(F)(F)F)cc1)Cc1coc2ccccc12` [Compound IB-2, (E)-N-ethyl-N-[(benzofuran-3-yl)methylene]-3-(4-trifluoromethylphenyl)-prop-2-en-1-amine], for which the IC50 was above 1 µM.
